Measurements taken from patent US11071770B2, “Methods for detecting cardiac damage” (Acorda Therapeutics, Inc., priority 2007, dated 2021).
Marks after values point to notes of the source that are not given here. Where a SMILES comes first, the peptide text is derived from it. The star is where a group is joined. Cbz = O=C(OCc1ccccc1)*

Experiments:
[1] = system: neonatal rat cardiomyocytes; conditions: NRCM, doxorubicin 1 uM
[2] = system: C57BL/6 mice; assay: Two-week survival of doxorubicin-treated mice (Kaplan-Meier); type: in vivo, mouse; conditions: two weeks after doxorubicin 20 mg/kg i.p.; NRG1 0.75 mg/kg s.c. daily vs placebo; doxorubicin vs non-treated control
Experimental: (§1) FIGS. 1A-1C show survival graphs (A), histograms (B-C), and immunoblots (C). […] Fourteen day survival was analyzed by the Kaplan-Meier method.
Cardiac function was assessed by direct left ventricular (LV) catheterization four days and two weeks after doxorubicin treatment. Two-week survival was analyzed by the Kaplan-Meier methods.

[3] = system: cytochrome c release; assay: Cytochrome c release (cell fractionation and Western blot); type: cell-based, rat; conditions: NRCM, Dox or Dox+NRG1
[4] = system: mTOR, P70S6K, S6 and eIF4G; assay: Phosphorylation of translational molecules by Western blot; type: cell-based, rat; conditions: cardiomyocytes, 48 hours after the treatment
Experimental: The phosphorylation levels of mTOR, P70S6K, S6, 4EBP and EIF4G were analyzed by Western blot analysis.
We assessed the activation of several translation machineries and related signaling pathways in Dox-Placebo and Dox-NRG1 treated cardiomyocytes.

[5] = system: cTnI and cTnT protein levels; assay: cTnI and cTnT protein levels in hearts of doxorubicin-treated WT and dnPI3K mice; type: in vivo, mouse; conditions: two weeks after doxorubicin injection
Experimental: FIGS. 5A-5C show a survival graph (A), histograms (B), and an immunoblot (C). […] Fourteen-day survival was analyzed by the Kaplan-Meier method. FIG. 5B depicts hemodynamic measurements in doxorubicin-treated dnPI3K mice. […] Hemodynamic measurements were performed six days after the doxorubicin treatment.
The present inventors measured cTnI and cTnT protein levels in doxorubicin-treated WT and dnPI3K mice.

[6] = system: mice with cardiac myocyte-specific overexpression of a dominant negative PI3K; assay: Survival of doxorubicin-treated WT and dnPI3K transgenic mice (Kaplan-Meier); type: in vivo, mouse; conditions: doxorubicin 20 mg/kg i.p., fourteen-day
[7] = system: serum creatine kinase (CK); assay: Serum creatine kinase (CK) level; type: in vivo, mouse; conditions: four days after doxorubicin injection
Experimental: as §1
Serum creatine kinase (CK) levels, an index of cardiac injury, were also assessed to provide an additional read-out of heart function.

[8] = system: mRNA of cTnI, cTnT, GATA4, MEF2c and Nkx2.5; assay: mRNA levels by quantitative RT-PCR in cardiomyocytes; type: cell-based, rat; conditions: for mRNA level of cTnI and cTnT: cardiomyocytes, Dox or Dox+NRG1
[9] = system: C57BL/6 mice; assay: Hemodynamic measurements by direct left ventricular catheterization, body and heart weights; type: in vivo, mouse
[10] = system: cTnI; assay: Ubiquitinylation of cTnI (immunoprecipitation, ubiquitin antibody); type: cell-based, rat; conditions: NRCM, Dox or Dox+NRG1
[11] = system: caspase 3, 6 and 9 as well as caspase-10, 2, and 5; assay: Caspase activation assay in cardiomyocytes; type: cell-based, rat; conditions: Dox or Dox+NRG1
Text: To investigate whether NRG1 inhibited doxorubicin-induced caspase degradation of cTnI and cTnT, the present inventors first identified the specific caspases that were responsible for doxorubicin-induced degradation of cTnI and cTnT. […] In addition, down-regulation of cTnI was blocked by inhibitors for caspase-10 (extrinsic pathway), caspase-2, caspase-13 or caspase-5.

[12] = system: cTnI, cTnT and cTnC protein levels; assay: Cardiac structural protein levels in heart by Western blot; type: in vivo, mouse
Experimental: as §1
Eight to ten week old C57BL/6 male mice were used for analyses wherein heart samples were isolated. […] Heart samples (n=3-4 per group) were collected and snap-frozen in liquid nitrogen.

[13] = WT mice, NRG1 0.75 mg/kg s.c. or placebo
[14] = doxorubicin-treated cardiomyocytes

## CC(C)C[C@@H](C=O)NC(=O)[C@H](CC(C)C)NC(=O)[C@H](CC(C)C)NC(=O)OCc1ccccc1 [MG132] (Cbz-Leu-Leu-Leu-aldehyde)
[1]
  effect on doxorubicin-induced down-regulation of cTnI: blocked

## COc1cccc2c1C(=O)c1c(O)c3c(c(O)c1C2=O)C[C@@](O)(C(=O)CO)C[C@@H]3O[C@H]1C[C@H](N)[C@H](O)[C@H](C)O1 [doxorubicin]
[2]
  survival: significantly decreased
[3]
  cytochrome c release to the cytosol: induced increasing
[4]
  phosphorylation levels of mTOR, P70S6K, S6 and eIF4G: decreased
[5]
  cTnI protein level in dnPI3K hearts: decrease
  cTnT protein levels in hearts of doxorubicin-treated mice compared to control mice: No changes
[6]; [13]
  survival rate: 33%
[7]
  serum CK level compared to control mice: significantly increased
[8]
  mRNA level of cTnI and cTnT: decreased
[9]; C57BL/6 mice, doxorubicin 20 mg/kg i.p. single dose with placebo or NRG1 0.75 mg/kg s.c. daily, five days after doxorubicin
  BW: 20 ± 0.4 g
[9]; as E1
  Cardiac Output: 1185 ± 203 µL/min
  EF: 17 ± 2 %
  HW/BW: 4.1 ± 0.1 mg/g
  HW/TL: 5.1 ± 0.1 mg/mm
  LVEDP: 3.6 ± 0.9^ mmHg
  LVW/BW: 3.5 ± 0.1^ mg/g
  LVW/TL: 4.4 ± 0.1 mg/mm
  dP/dt max: 7067 ± 884 ^ mmHg/sec
  dP/dt min: 5021 ± 602*^ mmHg/sec
[9]; as E1, LV systolic pressure
  LVSP: 84 ± 2*^ mmHg
[9]; as E1, heart weight
  HW: 83 ± 3 mg
[9]; as E1, left ventricular weight
  LVW: 70 ± 1 mg
[9]; as E1, tibia length
  TL: 16.3 ± 0.2 ^ mm
[10]
  ubiquitinylation of cTnI: increased
[11]
  activation of caspase 3, 6 and 9 as well as caspase-10, 2, and 5: significantly increased
[12]; doxorubicin 20 mg/kg i.p.
  levels of cardiac structural proteins (α-sarcomeric actin, α-actinin, TnT, TnI, TnC, tropomyosin) in hearts: significantly decreased

B1: NRG1: GGF2, a recombinant neuregulin-1; gift from Acorda Therapeutics (protein)
chain: GNEAAPAGASVCYSSPPSVGSVQELAQRAAVVIEGKVHPQRRQQGALDRKAAAAAGEAGAWGGDREPPAAGPRALGPPAEEPLLAANGTVPSWPTAPVPSAGEPGEEAPYLVKVHQVWAVKAGGLKKDSLLTVRLGTWGHPAFPSCGRLKEDSRYIFFMEPDANSTSRAPAAFRASFPPLETGRNLKKEVSRVLCKRCALPPRLKEMKSQESAAGSKLVLRCETSSEYSSLRFKWFKNGNELNRKNKPQNIKIQKKPGKSELRINKASLADSGEYMCKVISKLGNDSASANITIVESNATSTSTTGTSHLVKCAEKEKTFCVNGGECFMVKDLSNPSRYLCKCPNEFTGDRCQNYVMASFYSTSTPFLSLPE
[2]
  survival: significantly improved survival
[3]
  cytochrome c release to the cytosol: inhibited this effect
[5]
  cTnI protein level in dnPI3K hearts: abolished doxorubicin-induced down-regulation
[6]; [13]
  survival rate: 67%
[6]; dnPI3K mice, NRG1 0.75 mg/kg s.c.
  survival rate: 56%
[8]
  mRNA level of cTnI and cTnT: maintained
[8]; [14]
  mRNA level of GATA4: maintained
  mRNA level of MEF2c and Nkx2.5: slightly increased
[10]
  ubiquitinylation of cTnI: abolished this effect
[11]
  activation of caspase 3, 6 and 9 as well as caspase-10, 2, and 5: significantly inhibited
[12]; NRG1 0.75 mg/kg s.c. daily, doxorubicin 20 mg/kg i.p., five days after doxorubicin
  protein levels of cTnI, cTnT and cTnC in doxorubicin-injured hearts: significantly increased
[12]; NRG1 injection in vivo
  protein levels of α-sarcomeric actin, α-actinin and tropomyosin in doxorubicin-injured hearts: had no effects
